In brackets after ≈: the same amount, converted by molar mass. Like-named read-outs stand apart in the source and are kept apart here.
Experiments:
[1] = tested on: Mycobacterium tuberculosis H37Rv; test: MIC and MBC by broth microdilution against M. tuberculosis H37Rv; assay type: cell-based, Mycobacterium tuberculosis H37Rv (ATCC 27294); conditions: Mycobacterium tuberculosis, H37RV
[2] = Stability in Mycobacterium smegmatis homogenate (enzymatic hydrolysis); conditions: pH 7.4; for half-life: Mycobacterium smegmatis
[3] = tested on: Mycobacterium smegmatis homogenate; test: as above; conditions: Mycobacterium smegmatis homogenate, 37°C
[4] = tested on: human monocytic cell line THP-1 (ATCC56 TIB202); test: Cytotoxicity assay in THP-1 cells; assay type: cell-based; conditions: toxicity/activity index: ratio LC50 (THP-1) / MIC (M. tuberculosis H37Rv)
Description: (§1) Cytotoxicity results were obtained through lethal concentration for 50% of the cell population, LC50. Table 6. Results obtained from cytotoxicity assays for the esters, represented by LD50 in µg/mL and comparison with MIC values, in µg/mL with toxicity/activity (T/A) index.
(§2) The T/A index quantitatively is the ratio between the lethal concentration (LC50) given by the minimum inhibitory concentration (MIC).

[5] = Cytotoxicity assay in THP-1 cells; assay type: cell-based, human; conditions: human, THP-1 cells, read-out: LC50 (the source's name)
Description: as §1, §2

[6] = Stability in human plasma (enzymatic hydrolysis)
Description: The studies of stability in human plasma were performed in human plasma diluted to 80% with phosphate buffer pH 7.4 of total concentration 0.05 M and ionic strength 0.15 M at 37°C. […] Study of enzymatic hydrolysis. […] Initial substrate concentration (ester) - 5×10^-4M with 2% ACN.
Pooled human plasma (960 µL), pH 7.4 phosphate buffered saline (216 µL), 18 µL ACN and 6 µL of a 10-1 M stock solution of the prodrug in ACN were mixed in a 2mL vial. The suspensions were incubated at 37 °C and 50 µL aliquots were removed, mixed with 450 µL of ACN: ZnSO4 1% 1:1 and centrifuged. The supernatant was removed and analysed by HPLC, the remaining substrate and the correspondent acid measured.
Two HPLC systems were used. The buffer and plasma stability studies were performed in an HPLC system with a photodiode detector L-3000 Photo Diode Array Detector, Merck-Hitachi L-6000 pump, Merck-Hitachi D-2500 integrator, and Merck RP-8 column. […] The eluant was a mixture of acetonitrile (60%/70%) and aqueous phosphate buffer with 5% of KH2PO4/H3PO4 0.025M (40%/30%). The flow rate was always 1 mL/1 min and wavelength was set at 230 nm. All quantifications were evaluated using calibration curves from stock solutions.
The initial substrate concentration was 5 x 10^-4 M in all stability assays. All incubations were carried out at pH 7.4 and 37 °C under agitation using the phosphate buffer described above as diluting agent. […] Acetonitrile (2%) was used in all studies to ensure adequate solubilization of the substrates. The benzoates were added from 10 to 1M acetonitrile stock solutions. After incubation, aliquots of 50 µL were taken into vials containing 450 µL of a 1:1 solution of 1% zinc sulfate and acetonitrile, mixed in a vortex and centrifuged for 10 min at 15,000 rpm. The supernatant was then injected into the HPLC and analysed for quantification of benzoic acid and remaining benzoate. All quantifications were performed using calibration curves.

[7] = Chemical stability in phosphate buffer pH 7.4
Description: Chemical hydrolysis was evaluated in phosphate buffer at physiological pH (7.4) to determine its influence in enzymatic studies.
1176 µL pH 7.4 phosphate buffer or pH 5.9 phosphate buffer, 18 µL ACN and 6 µL of a 10-1 M stock solution of the prodrug in ACN were mixed in a 2mL vial. The solution was incubated at 37 °C and 50 µL aliquots were removed, mixed with 450 µL of ACN: H2O 1:1. The solution was analysed by HPLC, the remaining substrate and the correspondent acid were both measured.
The eluant was a mixture of acetonitrile (60%/70%) and aqueous phosphate buffer with 5% of KH2PO4/H3PO4 0.025M (40%/30%). The flow rate was always 1 mL/1 min and wavelength was set at 230 nm. All quantifications were evaluated using calibration curves from stock solutions.
The initial substrate concentration was 5 x 10^-4 M in all stability assays. All incubations were carried out at pH 7.4 and 37 °C under agitation using the phosphate buffer described above as diluting agent. […] Acetonitrile (2%) was used in all studies to ensure adequate solubilization of the substrates.

[8] = tested on: Mycobacterium Bovis BCG infecting human macrophages THP-1; assay type: cell-based; conditions: compound concentration 2 µg/ml
[9] = THP-1 monocytic cells, lethal concentration for 50% of the cell population
[10] = M. tuberculosis H37Rv, Table 3, read-out: MBC
[11] = M. tuberculosis H37Rv, Tables 3, 6 and 7, read-out: MIC

| SMILES | Degradation (%) 24h [3] [%] | Degradation (%) 48h [3] [%] | T/A [4] | CC50 [5, 9] [µg/mL] | Degradation (%) 24h [6] [%] | Degradation (%) 48h [6] [%] | Degradation (%) 72h [6] [%] | MBC [1, 10] [µg/mL] | MIC [1, 11] [µg/mL] | Degradation (%) 24h [7] [%] | Degradation (%) 48h [7] [%] | Degradation (%) 72h [7] [%] | Degradation (%) 168h [7] [%] | Degradation (%) 332h [7] [%] | half-life [2] [h] | other results |
| --- | --- | --- | --- | --- | --- | --- | --- | --- | --- | --- | --- | --- | --- | --- | --- | --- |
| CCCCCCOC(=O)c1ccc([N+](=O)[O-])cc1 [Compound 2b] | 77 | 94 |  |  |  |  |  |  |  |  |  |  |  |  |  | MBC ([1]; M. tuberculosis H37Rv, Table 3): 128 µg/mL (≈ 509 µM); MIC ([1]; M. tuberculosis H37Rv, Tables 3, 6 and 7): 64 µg/mL (≈ 255 µM); half-life at 500 µM ([2]; mycobacterium smegmatis homogenate): 11.5 ± 0.6 h |
| CCCCCCCCNC(=O)c1cc([N+](=O)[O-])cc(C(F)(F)F)c1 [Compound 8c, N-octyl-3-nitro-5-(trifluoromethyl)-benzamide] | 5 | 11 | 222 | 14 (≈ 40.4 µM) | 0 | 0 | 0 | 0.063 (≈ 0.182 µM) | 0.063 (≈ 0.182 µM) | 0 | 0 | 0 | 0 | 0 |  |  |
| CCCCCCCCNC(=O)c1ccc([N+](=O)[O-])cc1 [Compound 6c, N-octyl-4-nitrobenzamide] | 3 | 5 | 2 | 308 (≈ 1110 µM) | 0 | 0 | 1 | 256 (≈ 920 µM) | 128 (≈ 460 µM) | 0 | 0 | 0 | 0 | 0 |  |  |
| CCCCCCCCCCCCOC(=O)c1ccccc1 [Compound 1e, Dodecyl benzoate] | 16 | 30 |  |  | 3 | 6 | 9 | 512 (≈ 1760 µM) | 256 (≈ 881 µM) | 0 | 0 | 0 | 0 | 0 | 91.4 ± 3.1 |  |
| CCCCCCCCCCCCCCOC(=O)c1cc([N+](=O)[O-])cc([N+](=O)[O-])c1 [Compound 3f] | 3 | 6 |  |  | 23 | 51 | 65 |  |  |  |  |  |  |  |  | CC50 ([5]; n/d (no toxicity at maximum tested dose)): > 512 µg/mL; MBC [1]: > 1020 µg/mL; MIC [1]: 16 µg/mL (≈ 39.2 µM); CFU x10^4 ([8]; Time 0 days): 9.2 CFUs per mL; CFU x10^4 ([8]; Time 1 day): 12.16 CFUs per mL; CFU x10^4 ([8]; Time 3 days): 13.66 CFUs per mL; CFU x10^4 ([8]; Time 7 days): 7.25 CFUs per mL |
| CCCCCCOC(=O)c1cc([N+](=O)[O-])cc(C(F)(F)F)c1 [Compound 4b, Hexyl 3-nitro-5-(trifluoromethyl)benzoate] | 15 | 27 | 0.62 | 639 (≈ 2000 µM) | 72 | 94 | 98 | 1020 (≈ 3210 µM) | 1020 (≈ 3210 µM) |  |  |  |  |  | 105 ± 10 |  |
| CCCCCCCCNC(=O)c1ccccc1 [Compound 5c, N-octyl-benzamide] | 1 | 2 | 6 | 188 (≈ 806 µM) | 0 | 0 | 0 | 32 (≈ 137 µM) | 32 (≈ 137 µM) | 0 | 0 | 0 | 0 | 0 |  |  |
| CCCCCCCCCCCCNC(=O)c1cc([N+](=O)[O-])cc(C(F)(F)F)c1 [Compound 8e, N-dodecyl-3-nitro-5-(trifluoromethyl)-benzamide] | 1 | 3 | 226 | 113 (≈ 281 µM) | 0 | 0 | 0 | 0.5 (≈ 1.24 µM) | 0.5 (≈ 1.24 µM) | 0 | 0 | 0 | 0 | 0 |  |  |
| CCCCCCNC(=O)c1cc([N+](=O)[O-])cc(C(F)(F)F)c1 [Compound 8b, N-hexyl-3-nitro-5-(trifluoromethyl)-benzamide] | 7 | 14 | 46 | 23 (≈ 72.3 µM) |  |  |  | ≤ 0.5 | ≤ 0.5 |  |  |  |  |  |  |  |
| CCCCOC(=O)c1ccccc1 [Compound 1a, Butyl benzoate] | 100 | 100 |  |  | 100 | 100 | 100 | > 256 | > 256 | 0 | 0 | 0 | 1 | 2 | 0.2 ± 0.01 |  |
| CCCCCCNC(=O)c1ccc([N+](=O)[O-])cc1 [Compound 6b, N-hexyl-4-nitrobenzamide] | 17 | 32 |  |  |  |  |  | 64 (≈ 256 µM) | 32 (≈ 128 µM) |  |  |  |  |  | 87.2 ± 5.8 |  |
| CCCCNC(=O)c1ccc([N+](=O)[O-])cc1 [Compound 6a, N-butyl-4-nitrobenzamide] | 20 | 35 |  |  | 12 | 23 | 32 | 256 (≈ 1150 µM) | 128 (≈ 576 µM) | 0 | 0 | 0 | 0 | 0 | 76.5 ± 5.3 |  |
| CCCCCCOC(=O)c1ccccc1 [Compound 1b, Hexyl benzoate] | 100 | 100 |  |  | 94 | 100 | 100 |  |  |  |  |  |  |  | 0.21 ± 0.01 |  |
| CCCCCCCCCCNC(=O)c1cc([N+](=O)[O-])cc(C(F)(F)F)c1 [Compound 8d, N-decyl-3-nitro-5-(trifluoromethyl)-benzamide] | 2 | 3 | 106 | 53 (≈ 142 µM) |  |  |  | 0.5 (≈ 1.34 µM) | 0.5 (≈ 1.34 µM) |  |  |  |  |  |  |  |

From patent EP4345091A1, “BENZOIC ACID DERIVATIVES, METHODS AND USES THEREOF” (priority 2022, dated 2024)
